Results taken from patent publication US20050096564A1, “Method of distributing skin care products” (priority 2001, published 2005).

How the values were obtained:
[1] = Study 2: vitamin C concentration in ISF and serum of subjects taking oral vitamin supplements; assay type: in vivo, human; conditions: Study 2, Supplement Yes
Description: The laser made four pores at each collection site.

[2] = in vivo
Description: The studies included non-smoking, female subjects of good health over the age of 35 years and under the age 55 years with skin type of III or less by the Fitzpatrick Skin classification. […] Acceptable subjects were chronologically enrolled in the study following a randomization code describing what treatment would be applied to which dorsal forearm. […] The subject applied a blinded emulsion designated by a letter to one dorsal forearm and an alternative emulsion with a different designation to the opposite arm, twice per day, for three weeks. […] ISF was extracted from the dorsal forearm, volar upper arm, and serum at one week (“Week 2”) and three weeks after dosing (“Week 4”) and two weeks after the cessation of dosing (“Week 6”).
ISF was extracted from both the treatment site (dorsal forearm) as well as an adjacent, untreated site volar upper arm) following one week of therapy and three weeks of therapy. Subjects ended treatment at this point and returned for a final extraction two weeks later.
The ISF collection period lasted between three and six hours, typically four hours.

Vitamin C concentration, MEAN ([1]; Serum): 1.36 | Vitamin C concentration, MEAN ([1]; Sun-exposed site ISF): 1.00 | Vitamin C concentration, MEAN ([1]; Sun-protected site ISF): 1.00 | Influence of topical application on levels at an adjacent, untreated site or the serum [2]: does not influence | Response of serum level to topical therapy [2]: did not respond
SMILES: O=C1O[C@H]([C@@H](O)CO)C(O)=C1O [Vitamin C, vitamin C]
